{"source": "patent US9072791B2", "about": "“Photostabilized pharmaceutical compositions” (DENKI KAGAKU KOGYO KABUSHIKI KAISHA, priority 2008, dated 2015)", "type_in_all_cases": "physicochemical", "key": {"[1]": {"experiment": "Photostability test with additional light-shielding film LUMICOOL 1905 (Example 6);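 note: molecular weight and drug conjugation percentage of the test conjugate, both determined by the method given for the first production procedure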", "conditions": "for Molecular weight (×10^4), irradiation time 0 h / Molecular weight (×10^4), irradiation time 150 h / Molecular weight (×10^4), irradiation time 300 h / Percent Conjugation (%), irradiation time 0 h / Percent Conjugation (%), irradiation time 150 h / Percent Conjugation (%), irradiation time 300 h: vial wrapped with LUMICOOL 1905"}, "[2]": {"experiment": "Photostability test in glass vials not shielded from light: gelation, molecular weight, percent conjugation of MTX (Example 4(2))", "protocol": "Various photostabilizers (methyl p-hydroxybenzoate (methyl paraben), salicylic acid Na, thiosulfuric acid Na, thioglycolic acid Na, N-acetyltryptophan, and tryptophan) were each dissolved in a preparation buffer (0.9% NaCl containing 2 mM phosphate buffer, pH 7.4) to give a concentration of 1 or 10 mg/ml and thereafter filtered aseptically by passage through a 0.2-μm filter (Millex GV). A powder of the HA-MTX conjugate prepared in accordance with Production 1 was metered aseptically and dissolved in the filtered, photostabilizer-containing preparation buffer to give a concentration of 10 mg/mL; the thus prepared solutions were used as test samples. To prepare a control solution, the HA-MTX conjugate was dissolved in a photostabilizer-free preparation buffer at a concentration of 10 mg/mL.\nThe thus prepared solutions were put into glass vials not shielded from light and then irradiated with light.\nThe irradiation was so performed as to give an illuminance of 4000 Lux at 25° C. from a fluorescent lamp for use in a photostability test (TOSHIBA FL20S•D-EDL-D65) by means of a photostability tester (ETAC LABONIC LA110). After the lapse of specified periods (0 h, 25 h, 50 h, 100 h, 150 h, and 300 h) of irradiation, samples were taken and not only checked for gelation but also measured for the molecular weight of the HA-MTX conjugate and the percent conjugation of MTX (in the HA-MTX conjugate).\nTo evaluate the degree of gelation, the surface of each sample solution was pierced with a spatula and visually checked for the formation of an interface as the result of gelation. […] The apparatus used in gel filtration chromatography was equipped with OHpackSB-806HQ (Shodex) as a column, RI-71 (Shodex) as an […], and 875-UV (JASCO, detection wavelength: 304 nm) as a UV detector and analysis was conducted under the following conditions. Eluent: 50 mM sodium phosphate aqueous solution (pH 6.0); elution rate: 0.6 mL/min; column temperature: 40° C. By the above-described gel filtration chromatography, the elution times of the conjugate of interest were determined and the molecular weight of the same conjugate was determined from the relationship between the elution times and molecular weights of standard substances. As the standard substances, hyaluronic acid samples were prepared in varying molecular weights and their accurate values were calculated by the limiting viscosity method before it was used."}, "[3]": {"experiment": "Fluorescing of the HA-MTX conjugate upon irradiation with light at specified wavelengths (Example 1)", "design": "key: rated “+” when strong emission was observed after the irradiation; rated “−” when the emission after the irradiation was not different from the emission before the irradiation", "protocol": "The HA-MTX conjugate obtained in Production 1 was dissolved in 0.9% NaCl containing 2 mM phosphate buffer (pH 7.3) to give a concentration of 9.9 mg/ml in terms of HA and the solution was irradiated with light at varying wavelengths (260 nm, 310 nm, 360 nm, and 405 nm) using a fluorescence detector for liquid chromatography (product of Hitachi, Ltd.; fluorescence detector of model F1050) to observe the gelation and fluorescing of the conjugate. To evaluate the gelation, the surface of the sample solution was pierced with a spatula and visually checked for the formation of an interface as the result of gelation. To observe fluorescing, the sample was irradiated with exciting light and the state of light emission from the sample was observed by direct visual checking before and after the irradiation; the result was rated “+” when strong emission was observed after the irradiation but rated “−” when the emission after the irradiation was not different from the emission before the irradiation."}, "[4]": {"experiment": "Effect of photostabilizers on the excitation spectra of the HA-MTX conjugate (Example 4(1))", "conditions": "fluorescence at 458 nm", "protocol": "Various photostabilizers (methyl p-hydroxybenzoate (methyl paraben), salicylic acid Na, thiosulfuric acid Na, and N-acetyltryptophan) were each dissolved in a preparation buffer (0.9% NaCl containing 2 mM phosphate buffer (pH 7.4)) to give a concentration of 9 mg/ml (but 0.9 mg/ml in the case of methyl paraben) and thereafter filtered aseptically by passage through a 0.2-μm filter (Millex GV). […] The test samples and the control were irradiated with light at 300-480 nm and the intensity of fluorescence at 458 nm was measured."}, "[5]": {"conditions": "additive 1 mg/ml, 4000 Lux, 25° C., not shielded from light"}}, "note": "Several values for one entry are separate records, joined by “and”; a condition that tells them apart may be missing. Equal entries are not always repeated. Where two headings read alike, the source gives them in different places."}
{"molecule": "COC(=O)c1ccc(O)cc1", "note": "[Methyl paraben, methyl p-hydroxybenzoate]", "values": [{"measurement": "stabilizing effects (suppressing effects on the drop in molecular weight and the drop in percent conjugation of MTX)", "setting": "[1]", "value": "comparable to those obtained in the case where complete shielding of light was ensured by aluminum foil"}, {"measurement": "Molecular weight (×10^4), irradiation time 0 h", "setting": "[1]; additive 1 mg/mL", "value": "187 ×10^4"}, {"measurement": "Molecular weight (×10^4), irradiation time 150 h", "setting": "[1]; additive 1 mg/mL", "value": "184 ×10^4"}, {"measurement": "Molecular weight (×10^4), irradiation time 300 h", "setting": "[1]; additive 1 mg/mL", "value": "179 ×10^4"}, {"measurement": "Percent Conjugation (%), irradiation time 0 h", "setting": "[1]; additive 1 mg/mL", "value": 2.2, "unit": "%"}, {"measurement": "Percent Conjugation (%), irradiation time 150 h", "setting": "[1]; additive 1 mg/mL", "value": 2.2, "unit": "%"}, {"measurement": "Percent Conjugation (%), irradiation time 300 h", "setting": "[1]; additive 1 mg/mL", "value": 2.2, "unit": "%"}, {"measurement": "suppressing drops in the molecular weight and percent conjugation", "setting": "[2]; added at 1 mg/mL, not shielded from light", "value": "could suppress drops in the molecular weight and percent conjugation for irradiation periods that did not exceed about 100 hours"}, {"measurement": "Molecular weight (×10^4), irradiation time 0 h", "setting": "[2]; [5]", "value": "187 ×10^4"}, {"measurement": "Molecular weight (×10^4), irradiation time 25 h", "setting": "[2]; [5]", "value": "155 ×10^4"}, {"measurement": "Molecular weight (×10^4), irradiation time 50 h", "setting": "[2]; [5]", "value": "127 ×10^4"}, {"measurement": "Molecular weight (×10^4), irradiation time 100 h", "setting": "[2]; [5]", "value": "107 ×10^4"}, {"measurement": "Molecular weight (×10^4), irradiation time 150 h", "setting": "[2]; [5]", "value": "126 ×10^4"}, {"measurement": "Molecular weight (×10^4), irradiation time 300 h", "setting": "[2]; [5]", "value": "65 ×10^4"}, {"measurement": "Percent Conjugation (%) of MTX, irradiation time 0 h", "setting": "[2]; [5]", "value": 2.2, "unit": "%"}, {"measurement": "Percent Conjugation (%) of MTX, irradiation time 25 h", "setting": "[2]; [5]", "value": 2.0, "unit": "%"}, {"measurement": "Percent Conjugation (%) of MTX, irradiation time 50 h", "setting": "[2]; [5]", "value": 2.1, "unit": "%"}, {"measurement": "Percent Conjugation (%) of MTX, irradiation time 100 h", "setting": "[2]; [5]", "value": 2.0, "unit": "%"}, {"measurement": "Percent Conjugation (%) of MTX, irradiation time 150 h", "setting": "[2]; [5]", "value": 2.1, "unit": "%"}, {"measurement": "Percent Conjugation (%) of MTX, irradiation time 300 h", "setting": "[2]; [5]", "value": 1.9, "unit": "%"}]}
{"molecule": "O=C([O-])c1ccccc1O.[Na+]", "note": "[Na salicylate, sodium salicylate]", "values": [{"measurement": "Molecular weight (×10^4), irradiation time 0 h", "setting": "[1]; additive 1 mg/mL", "value": "186 ×10^4"}, {"measurement": "Molecular weight (×10^4), irradiation time 150 h", "setting": "[1]; additive 1 mg/mL", "value": "184 ×10^4"}, {"measurement": "Molecular weight (×10^4), irradiation time 300 h", "setting": "[1]; additive 1 mg/mL", "value": "163 ×10^4"}, {"measurement": "Percent Conjugation (%), irradiation time 0 h", "setting": "[1]; additive 1 mg/mL", "value": 2.2, "unit": "%"}, {"measurement": "Percent Conjugation (%), irradiation time 150 h", "setting": "[1]; additive 1 mg/mL", "value": 2.1, "unit": "%"}, {"measurement": "Percent Conjugation (%), irradiation time 300 h", "setting": "[1]; additive 1 mg/mL", "value": 2.2, "unit": "%"}, {"measurement": "Molecular weight (×10^4), irradiation time 0 h", "setting": "[1]; additive 10 mg/mL", "value": "185 ×10^4"}, {"measurement": "Molecular weight (×10^4), irradiation time 150 h", "setting": "[1]; additive 10 mg/mL", "value": "190 ×10^4"}, {"measurement": "Molecular weight (×10^4), irradiation time 300 h", "setting": "[1]; additive 10 mg/mL", "value": "179 ×10^4"}, {"measurement": "Percent Conjugation (%), irradiation time 0 h", "setting": "[1]; additive 10 mg/mL", "value": 2.2, "unit": "%"}, {"measurement": "Percent Conjugation (%), irradiation time 150 h", "setting": "[1]; additive 10 mg/mL", "value": 2.2, "unit": "%"}, {"measurement": "Percent Conjugation (%), irradiation time 300 h", "setting": "[1]; additive 10 mg/mL", "value": 2.1, "unit": "%"}, {"measurement": "stabilizing effects (suppressing effects on the drop in molecular weight and the drop in percent conjugation of MTX)", "setting": "[1]; with light-shielding film LUMICOOL 1905", "value": "comparable to those obtained in the case where complete shielding of light was ensured by aluminum foil"}, {"measurement": "Molecular weight (×10^4), irradiation time 0 h", "setting": "[2]", "value": "185 ×10^4 and 186 ×10^4"}, {"measurement": "Molecular weight (×10^4), irradiation time 25 h", "setting": "[2]", "value": "176 ×10^4 and 172 ×10^4"}, {"measurement": "Percent Conjugation (%) of MTX, irradiation time 0 h", "setting": "[2]", "value": 2.2, "unit": "%"}, {"measurement": "Percent Conjugation (%) of MTX, irradiation time 25 h", "setting": "[2]", "value": 2.2, "unit": "%"}, {"measurement": "Percent Conjugation (%) of MTX, irradiation time 50 h", "setting": "[2]", "value": 2.1, "unit": "%"}, {"measurement": "Percent Conjugation (%) of MTX, irradiation time 100 h", "setting": "[2]", "value": "2.1% and 1.9%"}, {"measurement": "Percent Conjugation (%) of MTX, irradiation time 150 h", "setting": "[2]", "value": "2.2% and 1.8%"}, {"measurement": "Percent Conjugation (%) of MTX, irradiation time 300 h", "setting": "[2]", "value": "2.2% and 2.0%"}, {"measurement": "suppressing drops in the molecular weight and percent conjugation", "setting": "[2]", "value": "considerably effective in suppressing drops in the molecular weight and percent conjugation even when the time of irradiation exceeded 100 hours"}]}
{"molecule": "MTX-α-PhePhe-NHC2H4NH-HA [HA-MTX conjugate]", "values": [{"measurement": "Fluorescence", "setting": "[3]; irradiation at 260 nm", "value": "−"}, {"measurement": "Fluorescence", "setting": "[3]; irradiation at 310 nm", "value": "−"}, {"measurement": "Fluorescence", "setting": "[3]; irradiation at 360 nm", "value": "+"}, {"measurement": "Fluorescence", "setting": "[3]; irradiation at 405 nm", "value": "+"}, {"measurement": "main excitation wavelengths", "setting": "[4]; control solution 1 mg/ml, no photostabilizer", "value": "320-430 nm"}, {"measurement": "excitation maximum wavelength (Ex λmax)", "setting": "[4]", "value": 380, "unit": "nm"}]}
